According to PMC7022392, “Chemoenzymatic Synthesis of Enantiomeric, Bicyclic δ-Halo-γ-lactones with a Cyclohexane Ring, Their Biological Activity and Interaction with Biological Membranes” (Biomolecules, 2020):
Converted amounts (≈) assume the structure as drawn. Read-outs that look alike come from different tables or passages of the source.

Assays:
[1] = system: Proteus mirabilis ATCC 35659; experiment: Disc diffusion antimicrobial test; format: cell-based; details: includes 6 mm disc, 24 h at 37 °C, racemic compounds
[2] = system: Bacillus cereus ATCC 10876; experiment: Disc diffusion antimicrobial test; format: cell-based; details: includes 6 mm disc, 24 h at 37 °C, racemic compounds
Procedure: (§1) The antimicrobial activity of racemic halolactones were tested towards three bacterial strains classified as Gram-negative (Escherichia coli ATCC 25922, Pseudomonas aeruginosa ATCC 27853, Proteus mirabilis ATCC […]) and Gram-positive (Bacillus cereus ATCC 10876) and two fungal strains (Candida albicans ATCC 10231 and Aspergillus brasiliensis ATCC 16404). The microorganisms were supplied by Pasteur Institute of Algiers (Algeria).
(§2) The tests were carried out using the disc diffusion method. Briefly, overnight microbial cultures were adjusted to 0.5 MacFarland turbidity standards and spread in Petri dishes containing Mueller–Hinton and Sabouraud media for bacteria and fungi, respectively. The paper discs (6 mm diameter) was sterilized and impregnated with lactone dissolved in DMSO. Then, the discs were placed on the inoculated agar. The negative controls were discs immersed in pure DMSO. The plates were incubated for 24 h at 37 °C (bacteria) and for 48 h at 25 °C (yeast) and 5–7 days for fungi. Then, the inhibition zone diameters were determined in millimeters (including disc diameter of 6 mm). The test was carried out in triplicates.

[3] = system: Escherichia coli ATCC 25922; experiment: Disc diffusion antimicrobial test; format: cell-based; details: includes 6 mm disc, 24 h at 37 °C, racemic compounds
Procedure: as §1, §2

[4] = system: CLB70 (canine B-cell chronic leukemia); experiment: Antiproliferative activity (formazan viability); format: cell-based; details: mean ± SD
Procedure: (§3) The GL-1 (canine B-cell leukemia) was obtained from Yasuhito Fujino and Hajime Tsujimoto from the Department of Veterinary Internal Medicine University of Tokyo [27], the CLB70 (canine B-cell chronic leukemia) was described earlier by Pawlak et al.. The GL-1 cells were maintained in RPMI 1640 medium with 10% fetal bovine serum (FBS), 100 µg/mL streptomycin, 100 U/mL penicillin and 2 mM L-glutamine (Sigma-Aldrich, Stainheim, Germany). The CLB70 cell line was maintained in Advanced RPMI (Gibco) medium with 100 µg/mL streptomycin, 100 U/mL penicillin and 20% heat-inactivated FBS. Cells were cultured at 37 °C in the incubator with 95% humidified atmosphere and 5% CO2. The antiproliferative activity was tested according to the procedure described previously. The tested lactones were prepared within a concentration range of 6.25–50 µg/mL in the culture medium (DMSO concentration was less than 1% in each dilution). The activity curves used to calculate IC50 are presented in the (Supplementary information Figures S7–S18). The optical density of formed formazan in untreated control cells was assigned as 100%. Viability of test samples was calculated as: % Viability = (average OD for test group/average OD for control group) × 100. The results were determined from more than 3 independent experiments (four wells each) and presented as mean IC50 value ± SD.

[5] = system: GL-1 (canine B-cell leukemia); experiment: Antiproliferative activity (formazan viability); format: cell-based; details: GL-1 cell line, mean ± SD
Procedure: as §3

[6] = Canis lupus familiaris, CLB70, CLB70 cell line, read-out: IC50
[7] = Canis lupus familiaris, B-cell, read-out: IC50

Structure (SMILES)	IC50 [4, 6] [µg/mL]	IC50 [5, 7] [µg/mL]	melting point [°C]	diameter of inhibition zone [1] [mm]	also measured
CC(I)C12CCCCC1CC(=O)O2 (racemic) [rac-6, 1-(1′-Iodoethyl)-9-Oxabicyclo[4.3.0]nonan-8-one]	–	–	–	11 ± 0.00	inhibition zone [2]: 12 ± 0.00 mm; inhibition zone [3]: 7 ± 0.00 mm
CC(Br)C12CCCCC1CC(=O)O2 (racemic) [rac-7, 1-(1′-Bromoethyl)-9-Oxabicyclo[4.3.0]nonan-8-one]	–	–	–	12 ± 0.35	inhibition zone [2]: 8 ± 0.00 mm; inhibition zone [3]: 9 ± 0.00 mm
C[C@@H](I)[C@]12CCCC[C@H]1CC(=O)O2 [6a, (−)-(1S,6S,1′R)-1-(1′-Iodoethyl)-9-oxabicyclo[4.3.0]nonan-8-one]	19.6 ± 0.51 (≈ 66.6 µM)	13.8 ± 1.08 (≈ 46.8 µM)	104 to 107	–	–
CC(Cl)C12CCCCC1CC(=O)O2 (centres unmarked) [compound 8, 1-(1′-Chloroethyl)-9-Oxabicyclo[4.3.0]nonan-8-one]	–	–	–	12 ± 0.00	–

More lines, main results first:

IC50 [4, 6] [µg/mL]	IC50 [5, 7] [µg/mL]	melting point [°C]	Structure (SMILES)	diameter of inhibition zone [1] [mm]	also measured
19.93 ± 0.07 (≈ 67.8 µM)	14.5 ± 2.38 (≈ 49.4 µM)	–	C[C@H](I)[C@@]12CCCC[C@@H]1CC(=O)O2 [6b, (+)-(1R,6R,1′S)-1-(1′-Iodoethyl)-9-oxabicyclo[4.3.0]nonan-8-one]	–	–
19.4 ± 0.35 (≈ 78.5 µM)	15.6 ± 0.79 (≈ 62.9 µM)	44 to 48	C[C@@H](Br)[C@]12CCCC[C@H]1CC(=O)O2 [7a, (−)-(1S,6S,1′R)-1-(1′-Bromoethyl)-9-oxabicyclo[4.3.0]nonan-8-one]	–	–
28.6 ± 4.89 (≈ 116 µM)	14.9 ± 1.93 (≈ 60.5 µM)	–	C[C@H](Br)[C@@]12CCCC[C@@H]1CC(=O)O2 [7b, (+)-(1R,6R,1′S)-1-(1′-Bromoethyl)-9-oxabicyclo[4.3.0]nonan-8-one]	–	–
23.9 ± 5.14 (≈ 118 µM)	17.2 ± 3.62 (≈ 84.7 µM)	37 to 40	C[C@@H](Cl)[C@]12CCCC[C@H]1CC(=O)O2 [8a, (−)-(1S,6S,1′R)-1-(1′-Chloroethyl)-9-oxabicyclo[4.3.0]nonan-8-one]	–	–
11.4 ± 0.4 (≈ 56.2 µM)	18.4 ± 1.46 (≈ 90.9 µM)	–	C[C@H](Cl)[C@@]12CCCC[C@@H]1CC(=O)O2 [8b, (+)-(1R,6R,1′S)-1-(1′-Chloroethyl)-9-oxabicyclo[4.3.0]nonan-8-one]	–	IC50 ([4]; CLB70 cell line): 18.43 ± 1.46 µg/mL (≈ 90.9 µM); IC50 [5]: 11.40 ± 0.40 µg/mL (≈ 56.2 µM)
14.3 ± 2.83 (≈ 24.3 µM)	4.4 ± 1.14 (≈ 7.48 µM)	–	COc1cc([C@@H]2c3cc4c(cc3[C@@H](O[C@@H]3O[C@@H]5CO[C@@H](C)O[C@H]5[C@H](O)[C@H]3O)[C@H]3COC(=O)[C@H]23)OCO4)cc(OC)c1O [Etoposide, reference compound]	–	–
